Source: patent US8063071B2 (GlaxoSmithKline, LLC, priority 2007, dated 2011)
Structures can show the parent of a compound that is named as a salt.

Columns and labels:
[1] = tested on: human monocyte stimulated cytokine production (TNF-α); assay: Monocyte assay (LPS-stimulated TNF-α production); format: cell-based; details: for IC50: 24 h, 200 ng/mL LPS, TNF-α by ELISA
Method in brief: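 Human CD14+ monocytes were purified from blood and plated at 1×10^6 cells/mL in RPMI 1640 with 10% FBS. Compound was added 30 min before stimulation with 200 ng/mL LPS (0.1% DMSO final), followed by 24 hrs at 37 C. Supernatant TNF-α was measured by ELISA, and viability by trypan blue exclusion.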

[2] = molecular target: T1, Recombinant human IKKβ (residues 1-737) (Homo sapiens, UniProt O14920); assay: IKK2 assay (TR-FRET); format: biochemical; details: ATP 1 μM final, read-out: pIC50 against IKK2 (converted)
T1 construct: Recombinant human IKKβ (residues 1-737); GST (C); made in house
T1 sequence (O14920 1-737): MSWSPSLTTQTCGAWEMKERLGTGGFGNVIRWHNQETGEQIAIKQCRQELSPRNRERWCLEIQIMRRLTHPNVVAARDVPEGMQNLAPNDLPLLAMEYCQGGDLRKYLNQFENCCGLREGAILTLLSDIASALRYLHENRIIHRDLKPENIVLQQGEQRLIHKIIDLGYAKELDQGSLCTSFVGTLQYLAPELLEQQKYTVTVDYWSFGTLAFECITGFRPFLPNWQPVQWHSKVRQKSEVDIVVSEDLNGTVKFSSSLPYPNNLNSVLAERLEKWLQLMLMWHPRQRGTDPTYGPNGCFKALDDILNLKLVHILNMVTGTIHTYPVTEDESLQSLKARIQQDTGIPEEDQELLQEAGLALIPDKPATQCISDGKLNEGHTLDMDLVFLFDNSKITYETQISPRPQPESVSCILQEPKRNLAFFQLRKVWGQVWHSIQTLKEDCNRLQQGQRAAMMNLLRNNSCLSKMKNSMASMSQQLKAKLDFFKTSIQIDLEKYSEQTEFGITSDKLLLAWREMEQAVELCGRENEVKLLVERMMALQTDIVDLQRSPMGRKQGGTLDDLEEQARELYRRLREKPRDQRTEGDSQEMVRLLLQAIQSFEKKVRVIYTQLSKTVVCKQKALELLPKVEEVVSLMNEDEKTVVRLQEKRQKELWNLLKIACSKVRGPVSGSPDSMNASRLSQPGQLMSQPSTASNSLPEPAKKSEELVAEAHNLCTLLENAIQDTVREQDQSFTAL
Method in brief: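 Baculovirus-expressed C-terminal GST-tagged IKKβ (0.5-5 nM final) in HEPES pH 7.4, MgCl2, CHAPS, DTT, BSA with 1.7% DMSO; 25 nM GST-IB substrate and 1 μM ATP, 15 min at room temperature. EDTA stop; phospho-Ser32/36 detected by Eu-antibody/APC-anti-GST TR-FRET, 665/620 nm ratio.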

| SMILES | IC50 [1] [µM] | IC50 [2] [µM] | inhibition at 0.3 µM ([1]; read-out: inhibition at 300 nM in the monocyte assay) [%] |
| --- | --- | --- | --- |
| CCS(=O)(=O)N1CCC(c2c[nH]c3c(C(N)=O)cc(-c4ccc(N5CCN(C(C)=O)CC5)nc4)cc23)CC1 [Example 389, 5-[6-(4-acetyl-1-piperazinyl)-3-pyridinyl]-3-[1-(ethylsulfonyl)-4-piperidinyl]-1H-indole-7-carboxamide trifluoroacetate] | > 1 | ≤ 10 |  |
| CCS(=O)(=O)N1CCC(c2c[nH]c3c(C(N)=O)cc(-c4ccc(CNOC)cc4)cc23)CC1 [Example 390, 3-[1-(ethylsulfonyl)-4-piperidinyl]-5-(4-{[(methyloxy)amino]methyl}phenyl)-1H-indole-7-carboxamide] | > 1 | ≤ 10 |  |
| CCS(=O)(=O)N1CCC(c2c[nH]c3c(C(N)=O)cc(-c4csc(CN5CCC(N6CCCC6)CC5)c4)cc23)CC1 [Example 392, 3-[1-(ethylsulfonyl)-4-piperidinyl]-5-(5-{[4-(1-pyrrolidinyl)-1-piperidinyl]methyl}-3-thienyl)-1H-indole-7-carboxamide trifluoroacetate] | > 1 | ≤ 10 |  |
| CCS(=O)(=O)N1CCC(c2c[nH]c3c(C(N)=O)cc(-c4csc(CN5CCC[C@H]5C(F)(F)F)c4)cc23)CC1 [Example 393, 3-[1-(ethylsulfonyl)-4-piperidinyl]-5-(5-{[(2S)-2-(trifluoromethyl)-1-pyrrolidinyl]methyl}-3-thienyl)-1H-indole-7-carboxamide trifluoroacetate] | > 1 | ≤ 10 |  |
| CC(C)S(=O)(=O)N1CCC(c2c[nH]c3c(C(N)=O)cc(-c4csc(CN5CCC[C@@H]5CO)c4)cc23)CC1 [Example 394, 5-(5-{[(2R)-2-(hydroxymethyl)-1-pyrrolidinyl]methyl}-3-thienyl)-3-{1-[(1-methylethyl)sulfonyl]-4-piperidinyl}-1H-indole-7-carboxamide] | ≤ 1.5 | ≤ 10 |  |
| CC(C)S(=O)(=O)N1CCC(c2c[nH]c3c(C(N)=O)cc(-c4csc(CN5CC[C@H](O)C5)c4)cc23)CC1 [Example 395, 5-(5-{[(3S)-3-hydroxy-1-pyrrolidinyl]methyl}-3-thienyl)-3-{1-[(1-methylethyl)sulfonyl]-4-piperidinyl}-1H-indole-7-carboxamide] | ≤ 1.5 | ≤ 10 |  |
| CC(C)S(=O)(=O)N1CCC(c2c[nH]c3c(C(N)=O)cc(-c4csc(CN(C)C5CCCC5)c4)cc23)CC1 [Example 396, 5-(5-{[cyclopentyl(methyl)amino]methyl}-3-thienyl)-3-{1-[(1-methylethyl)sulfonyl]-4-piperidinyl}-1H-indole-7-carboxamide] | ≤ 1.5 | ≤ 10 |  |
| CC(C)S(=O)(=O)N1CCC(c2c[nH]c3c(C(N)=O)cc(-c4csc(CN(C)CCO)c4)cc23)CC1 [Example 397, 5-(5-{[(2-hydroxyethyl)(methyl)amino]methyl}-3-thienyl)-3-{1-[(1-methylethyl)sulfonyl]-4-piperidinyl}-1H-indole-7-carboxamide] | ≤ 1.5 | ≤ 10 |  |
| C=CCN(C)Cc1cc(-c2cc(C(N)=O)c3[nH]cc(C4CCN(S(=O)(=O)CC)CC4)c3c2)cs1 [Example 399, 3-[1-(ethylsulfonyl)-4-piperidinyl]-5-(5-{[methyl(2-propen-1-yl)amino]methyl}-3-thienyl)-1H-indole-7-carboxamide] | ≤ 1.5 | ≤ 10 |  |
| CCS(=O)(=O)N1CCC(c2c[nH]c3c(C(N)=O)cc(-c4csc(CN(C)Cc5c(C)n[nH]c5C)c4)cc23)CC1 [Example 400, 5-(5-{[[(3,5-dimethyl-1H-pyrazol-4-yl)methyl](methyl)amino]methyl}-3-thienyl)-3-[1-(ethylsulfonyl)-4-piperidinyl]-1H-indole-7-carboxamide] | ≤ 1.5 | ≤ 10 |  |
| CCS(=O)(=O)N1CCC(c2c[nH]c3c(C(N)=O)cc(-c4csc(CN(C)CC#N)c4)cc23)CC1 [Example 401, 5-(5-{[(cyanomethyl)(methyl)amino]methyl}-3-thienyl)-3-[1-(ethylsulfonyl)-4-piperidinyl]-1H-indole-7-carboxamide] | ≤ 1.5 | ≤ 10 |  |
| CCC(C)N(C)Cc1cc(-c2cc(C(N)=O)c3[nH]cc(C4CCN(S(=O)(=O)CC)CC4)c3c2)cs1 (centres unmarked) [Example 402, 3-[1-(ethylsulfonyl)-4-piperidinyl]-5-(5-{[methyl(1-methylpropyl)amino]methyl}-3-thienyl)-1H-indole-7-carboxamide] | ≤ 1.5 | ≤ 10 |  |
| CCS(=O)(=O)N1CCC(c2c[nH]c3c(C(N)=O)cc(-c4csc(CN(C)C5CCC5)c4)cc23)CC1 [Example 404, 5-(5-{[cyclobutyl(methyl)amino]methyl}-3-thienyl)-3-[1-(ethylsulfonyl)-4-piperidinyl]-1H-indole-7-carboxamide trifluoroacetate] | ≤ 1.5 | ≤ 10 |  |
| CCS(=O)(=O)N1CCC(c2c[nH]c3c(C(N)=O)cc(-c4csc(CN(C)C(C)(C)C)c4)cc23)CC1 [Example 406, 5-(5-{[(1,1-dimethylethyl)(methyl)amino]methyl}-3-thienyl)-3-[1-(ethylsulfonyl)-4-piperidinyl]-1H-indole-7-carboxamide trifluoroacetate] | ≤ 1.5 | ≤ 10 |  |
| CCS(=O)(=O)N1CCC(c2c[nH]c3c(C(N)=O)cc(-c4csc(CN(C)[C@@H](C)CO)c4)cc23)CC1 [Example 408, 3-[1-(ethylsulfonyl)-4-piperidinyl]-5-(5-{[[(1S)-2-hydroxy-1-methylethyl](methyl)amino]methyl}-3-thienyl)-1H-indole-7-carboxamide trifluoroacetate] | ≤ 1.5 | ≤ 10 |  |
| CCS(=O)(=O)N1CCC(c2c[nH]c3c(C(N)=O)cc(-c4csc(CN(C)CC5CC5)c4)cc23)CC1 [Example 409, 5-(5-{[(cyclopropylmethyl)(methyl)amino]methyl}-3-thienyl)-3-[1-(ethylsulfonyl)-4-piperidinyl]-1H-indole-7-carboxamide trifluoroacetate] | ≤ 1.5 | ≤ 10 |  |
| CCC(C)(C)N(C)Cc1cc(-c2cc(C(N)=O)c3[nH]cc(C4CCN(S(=O)(=O)CC)CC4)c3c2)cs1 [Example 412, 5-{5-[(1,1-dimethylpropyl)(methyl)amino]methyl}-3-thienyl)-3-[1-(ethylsulfonyl)-4-piperidinyl]-1H-indole-7-carboxamide trifluoroacetate] | ≤ 1.5 | ≤ 10 |  |
| CCS(=O)(=O)N1CCC(c2c[nH]c3c(C(N)=O)cc(-c4csc(C(C)N(C)CCOC)c4)cc23)CC1 (centres unmarked) [Example 416, 3-[1-(ethylsulfonyl)-4-piperidinyl]-5-[5-(1-{methyl[2-(methyloxy)ethyl]amino}ethyl)-3-thienyl]-1H-indole-7-carboxamide trifluoroacetate] | ≤ 1.5 | ≤ 10 |  |
| CCCN(C)C(C)c1cc(-c2cc(C(N)=O)c3[nH]cc(C4CCN(S(=O)(=O)CC)CC4)c3c2)cs1 (centres unmarked) [Example 417, 3-[1-(ethylsulfonyl)-4-piperidinyl]-5-(5-{1-[methyl(propyl)amino]ethyl}-3-thienyl)-1H-indole-7-carboxamide trifluoroacetate] | ≤ 1.5 | ≤ 10 |  |
| CCS(=O)(=O)N1CCC(c2c[nH]c3c(C(N)=O)cc(-c4ccc5c(c4)CNC5)cc23)CC1 [Example 418, 5-(2,3-dihydro-1H-isoindol-5-yl)-3-[1-(ethylsulfonyl)-4-piperidinyl]-1H-indole-7-carboxamide] | ≤ 1.5 | ≤ 10 |  |
| CCN1Cc2ccc(-c3cc(C(N)=O)c4[nH]cc(C5CCN(S(=O)(=O)CC)CC5)c4c3)cc2C1 [Example 419, 5-(2-ethyl-2,3-dihydro-1H-isoindol-5-yl)-3-[1-(ethylsulfonyl)-4-piperidinyl]-1H-indole-7-carboxamide] | ≤ 1.5 | ≤ 10 |  |
| CC(C)S(=O)(=O)N1CCC(c2c[nH]c3c(C(N)=O)cc(-c4csc(CN5CCC[C@@H]5C(N)=O)c4)cc23)CC1 [Example 429, 5-(5-{[(2R)-2-(aminocarbonyl)-1-pyrrolidinyl]methyl}-3-thienyl)-3-[1-[(1-methylethyl)sulfonyl]-4-piperidinyl]-1H-indole-7-carboxamide] |  | ≤ 10 | 0 to 60 |
